Data published in BindingDB's records for patent US9102669 (Janssen Pharmaceutica, 2015).

Target: T1, Acyl-CoA desaturase 1 (Rattus norvegicus, UniProt P07308)
T1 sequence (P07308 whole entry): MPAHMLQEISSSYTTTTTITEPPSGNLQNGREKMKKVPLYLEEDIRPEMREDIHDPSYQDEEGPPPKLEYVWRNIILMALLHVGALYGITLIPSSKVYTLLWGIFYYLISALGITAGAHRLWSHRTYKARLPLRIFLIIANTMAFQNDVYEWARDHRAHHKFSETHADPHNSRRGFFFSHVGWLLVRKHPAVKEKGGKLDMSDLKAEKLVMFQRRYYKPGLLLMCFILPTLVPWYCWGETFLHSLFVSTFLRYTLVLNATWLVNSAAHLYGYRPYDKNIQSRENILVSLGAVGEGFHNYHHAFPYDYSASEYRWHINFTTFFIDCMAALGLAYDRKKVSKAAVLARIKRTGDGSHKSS
Assay: Enzymatic Assay
Conditions: 25 °C
Experimental: The SCD1 enzymatic assay was done in a volume of 50 μL using 10 μg of RLM (prepared as described above) in a 96-well polypropylene plate (enzyme reaction buffer contains 0.1 M K-Phosphate Buffer, 10 mM ATP, 6 mM MgCl2. 1 mM CoA, 1 mM β-NADH, 1.6 mM L-glutathione, 20 μM Stearoyl-CoA). […] Test compound was then added to the reaction mixture at the selected concentration. After incubation at room temperature for 2 hours, 5 μL 1 N HCl was added to stop the reaction, followed by addition of 25 μL of 10% charcoal. The reaction mixture was then transferred to 96-well Multiscreen plate (Millipore, Cat#MSFCN6B50).

## Cn1cc(-c2ccc(N3CCC(N4CCc5c(Cl)cc(Cl)cc54)CC3)nn2)cn1 [US9102669, 68]
  IC50: > 1 µM
